Results as given in US5380646A, “Thrombus detection using radiolabelled disintegrins” (Temple University of the Commonwealth System of Higher …, priority 1992, dated 1995).
Ends that are not written are not given here.

Experiments:
[1] = tested on: pulmonary emboli; conditions: literature, in words; cited from earlier work
[2] = tested on: thrombi; conditions: literature, in words; cited from earlier work
[3] = tested on: femoral clot; assay: Comparison of short Arg-Gly-Asp peptides to disintegrins in dog, femoral clot (Example 7); assay type: in vivo; conditions: T:B at least 4:1 in extremities, 9:1 in chest
Experimental: In this example of thrombi and emboli in a dog, the radioactivity target:background ratios were determined qualitatively by imaging and quantitatively by tissue sampling. […] Significant measurements presented in this study are the relative ratio of counts from the target tissue (thrombus and pulmonary emboli) to background entities (muscle, vessels blood etc.). […] Thrombus uptake data, such as the percent injected radiolabel dose per gram of thrombus (% id/g thrombus), thrombus-to-blood (=100×% id/g thrombus.div.%id/g blood) and thrombus-to-muscle ratios (=100×%id/g thrombus.div.%id/g muscle) were calculated from the tissue sample count data discussed below.
A female mongrel dog weighing 40 lbs was fasted overnight. The dog was sedated with an intramuscular injection of a mixture of ketamine hydrochloride and acepromazine maleate. General anesthesia was induced with intravenous pentobarbital (20 mg/kg). After shaving and washing the dog's skin, a 3-cm incision was made in the right groin area. Using blunt dissection, a segment of the femoral vein was located and freed from surrounding tissue for a length of 1 inch. […]
At 2 hours and 45 min. post injection, deep anesthesia was induced by intravenous administration of 30 mg/kg pentobarbital. […] Each sample was then placed in a counting tube and counted along with a saved aliquot of the injected dose as a standard, in a well counter. […]

[4] = tested on: pulmonary emboli; assay: Comparison of short Arg-Gly-Asp peptides to disintegrins in dog, pulmonary emboli (Example 7); assay type: in vivo; conditions: PE; 4 hrs
Experimental: In this example of thrombi and emboli in a dog, the radioactivity target:background ratios were determined qualitatively by imaging and quantitatively by tissue sampling. Higher ratios are due to the increased target specificity of the radiolabel carrier. Significant measurements presented in this study are the relative ratio of counts from the target tissue (thrombus and pulmonary emboli) to background entities (muscle, vessels blood etc.). […] Thrombus uptake data, such as the percent injected radiolabel dose per gram of thrombus (% id/g thrombus), thrombus-to-blood (=100×% id/g thrombus.div.%id/g blood) and thrombus-to-muscle ratios (=100×%id/g thrombus.div.%id/g muscle) were calculated from the tissue sample count data discussed below.
To create a model of pulmonary embolus, an incision was made in the corresponding location on the left leg of the dog. […] The catheter and guide wire were withdrawn. The incision was closed with 2-0 silk.
Twenty-four hours after placement of the coils, anesthesia was induced as before. The urinary bladder was catheterized to collect urine. A large field of view gamma camera (General Electric, Milwaukee, Wis.) was positioned over the dog for an anterior view of the chest. The camera was fitted with a low-energy all-purpose collimator and was set to acquire the 159 keV photopeak of ^123 I with a 20% window. A Macintosh IIx computer was interfaced to the camera using a NucLear Mac A/D board and software (Scientific Imaging, Denver, Colo.). […] The ^125 -fibrinogen served as a control, since it has been studied previously in this dog model.
[…] A blood sample was drawn and 0.3 cc was transferred into each of two pre-weighed tubes. The animal was euthanized with intracardiac injection of KCl saturated solution. The vein segment containing the thrombus was carefully removed and dissected to separate the thrombus, coil, Dacron fibers and vessel wall. Each of these samples was placed on tared paper and weighed (wet weight). Similar size samples of control vessel (femoral vein from the control side) and skeletal muscle (from the thigh) were also collected and weighed. The "abnormal vessel" was the sample of vein from which the thrombus was dissected. The "control vessel" was the identical control vessel from the opposite leg. The control vessel Was not injured and therefore should not have significant uptake of radiotracer. Each sample was then placed in a counting tube and counted along with a saved aliquot of the injected dose as a standard, in a well counter. After counting, samples were held for decay of ^123 I and recounted in a lower energy window to collect the counts from ^125 I.
The imaging ability of the small peptides was compared to that of the ^123 I-labelled disintegrins in the Example 6 dog model. […]

Fibronectin
ability to image pulmonary emboli [1]: not been useful for imaging pulmonary emboli

Heparin [reference compound]
ability to image or detect thrombi [2]: not been found successful as an agent for imaging thrombi

^123 I-eristostatin: eristostatin, disintegrin from Eristocophis macmahoni, radioiodinated with ^123 I (QEEPCATGPCCRRCKFKRAGKVCRVARGDWNDDYCTGKSCDCPRNPWN; cysteine pairing not given here; also: radioiodinated with 123I, place not given here)
target:background ratios versus medically acceptable range for imaging [3]: medically significant background ratios for imaging of thrombi | AV:CV abnormal (injured) vessel:control vessel label ratio [4]: 1.2 | Percent Injected Dose Per Gram of Thrombus [4]: 0.1205 % id/g | T:B thrombus:blood ratio [4]: 8.6 | T:M thrombus:muscle ratio [4]: 40.6

streptokinase
ability to image or detect thrombi [2]: only with marginal success

urokinase
ability to image or detect thrombi [2]: only with marginal success
